Results from publication PMC3914206.

Columns and labels:
panel of 442 kinases [1] = target: T1, panel of 442 kinases (Homo sapiens, UniProt Q6P3R8); type: binding; details: Compound Concentration 10 µM
T1 construct: purchased KINOMEscan
T1 sequence (Q6P3R8 1-708): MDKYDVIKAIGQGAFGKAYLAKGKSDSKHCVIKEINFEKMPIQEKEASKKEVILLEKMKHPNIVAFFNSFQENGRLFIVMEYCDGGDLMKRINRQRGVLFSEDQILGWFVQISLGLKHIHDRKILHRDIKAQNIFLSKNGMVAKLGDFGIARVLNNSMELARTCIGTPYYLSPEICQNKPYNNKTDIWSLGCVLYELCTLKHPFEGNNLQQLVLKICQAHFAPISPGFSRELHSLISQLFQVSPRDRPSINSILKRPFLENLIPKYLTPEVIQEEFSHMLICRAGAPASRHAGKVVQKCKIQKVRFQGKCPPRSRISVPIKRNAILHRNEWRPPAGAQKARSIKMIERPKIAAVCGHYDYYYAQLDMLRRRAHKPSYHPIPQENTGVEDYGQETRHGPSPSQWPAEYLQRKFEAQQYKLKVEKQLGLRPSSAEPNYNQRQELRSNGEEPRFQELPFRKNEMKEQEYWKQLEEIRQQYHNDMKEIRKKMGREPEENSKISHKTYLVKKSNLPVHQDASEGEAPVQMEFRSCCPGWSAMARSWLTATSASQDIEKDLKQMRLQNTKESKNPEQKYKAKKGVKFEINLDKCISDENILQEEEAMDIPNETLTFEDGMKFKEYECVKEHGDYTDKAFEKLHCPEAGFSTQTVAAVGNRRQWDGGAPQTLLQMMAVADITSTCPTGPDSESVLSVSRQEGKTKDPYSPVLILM
From the text: (§1) We assessed the selectivity of members of this scaffold using the KINOMEscan methodology across a near comprehensive panel of 442 kinases [[18,27]].

panel of 442 kinases [2] = target: T2, panel of 442 kinases (Homo sapiens, UniProt O75385); type: binding; details: kinase ULK1; compound concentration 10 µM
T2 construct: purchased KINOMEscan
T2 sequence (O75385 1-1050): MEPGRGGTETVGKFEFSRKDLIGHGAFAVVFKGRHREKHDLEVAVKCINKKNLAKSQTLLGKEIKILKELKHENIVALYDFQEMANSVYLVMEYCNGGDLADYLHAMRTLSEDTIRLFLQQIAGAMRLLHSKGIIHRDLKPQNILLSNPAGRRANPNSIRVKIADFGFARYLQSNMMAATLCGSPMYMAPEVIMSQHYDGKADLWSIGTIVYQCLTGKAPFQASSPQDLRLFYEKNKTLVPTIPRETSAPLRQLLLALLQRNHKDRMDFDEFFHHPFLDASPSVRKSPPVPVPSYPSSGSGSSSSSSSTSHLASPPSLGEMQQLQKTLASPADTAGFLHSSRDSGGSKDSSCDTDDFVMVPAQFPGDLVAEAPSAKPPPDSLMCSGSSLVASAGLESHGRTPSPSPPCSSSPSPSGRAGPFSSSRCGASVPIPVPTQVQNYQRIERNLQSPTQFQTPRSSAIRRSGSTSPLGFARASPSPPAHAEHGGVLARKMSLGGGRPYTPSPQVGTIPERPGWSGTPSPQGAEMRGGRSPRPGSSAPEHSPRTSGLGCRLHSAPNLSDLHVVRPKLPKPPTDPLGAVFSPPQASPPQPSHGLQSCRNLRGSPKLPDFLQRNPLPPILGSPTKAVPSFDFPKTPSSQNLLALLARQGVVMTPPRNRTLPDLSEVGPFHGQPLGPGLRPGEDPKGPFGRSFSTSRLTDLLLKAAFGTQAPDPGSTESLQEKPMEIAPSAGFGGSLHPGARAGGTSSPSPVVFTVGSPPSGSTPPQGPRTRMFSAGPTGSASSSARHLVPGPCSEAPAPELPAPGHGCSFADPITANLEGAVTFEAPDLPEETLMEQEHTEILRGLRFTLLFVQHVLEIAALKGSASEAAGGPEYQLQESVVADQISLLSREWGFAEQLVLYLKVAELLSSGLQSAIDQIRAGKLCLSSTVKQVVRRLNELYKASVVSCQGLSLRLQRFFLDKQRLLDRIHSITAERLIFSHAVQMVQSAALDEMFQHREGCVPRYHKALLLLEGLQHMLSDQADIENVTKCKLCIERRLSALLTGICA
From the text: as §1

SMILES | KINOMEscan: NEK5 (panel of 442 kinases [1]) | % Ctrl, ULK1 (panel of 442 kinases [2]) [% Ctrl]
COc1cc(C(=O)N2CCC(N3CCN(C)CC3)CC2)ccc1Nc1ncc2c(n1)N(C)c1ccccc1C(=O)N2C [15 (LRRK2-IN-1)] | 100 | 80
CCOc1cc(C(=O)N2CCC(N3CCN(C)CC3)CC2)ccc1Nc1ncc2c(n1)N(C1CCCC1)c1ccccc1C(=O)N2C [Compound 26] | 100 | 100
COc1cc(C(=O)N2CCC(N3CCN(C)CC3)CC2)ccc1Nc1ncc2c(n1)N1CCc3cccc(c31)C(=O)N2C [Compound 24] | 57 | 100
COc1cc(C(=O)N2CCC(N3CCN(C)CC3)CC2)ccc1Nc1ncc2c(n1)N(C1CCCC1)c1ccccc1C(=O)N2C [Compound 25, 11-cyclopentyl-2-((2-methoxy-4-(4-(4-methylpiperazin-1-yl)piperidine-1-carbonyl)phenyl)amino)-5-methyl-5H-benzo[e]pyrimido[5,4-b][1,4]diazepin-6(11H)-one] | 100 | 100
